Measurements: US12222275B2, “Methods and systems for particle characterisation by imaging free-floating particle movement in liquid enviornment” (VRIJE UNIVERSITEIT BRUSSEL, priority 2019, dated 2025)
“Also recorded” adds a separate entry of the source.

Key:
C. albicans = settings: cited from earlier work
[1] = test system: C. albicans CAF2-1 wild-type strain; test: Optical nanomotion detection (ONMD), amphotericin B dose-response; type: cell-based, Candida albicans
Description: (§1) To track single cells, in the present example a cross-correlation image registration algorithm was used. The method was documented to efficiently track subtle modifications of keratin networks in living cells and displacements of myoblasts. The algorithm is based on the initial estimation of the cross-correlation peak between the first and every subsequent frame. […] Our program calculates the cell displacement for each frame and saves the trajectories of tracked cells as well as the root mean square of the displacement to an MS Excel file.
(§2) The cellular x-y movements were monitored by recording 12 s long movies (1000 frames) taken at a magnification of 400× (FIG. 13). By periodically recording these movies, temporal behavior of the cells was characterized as a function of different chemical and physical stimuli (FIG. 13A-B). To track the cellular movements of single cells, we used a cross-correlation image registration algorithm. The algorithm is based on the initial estimation of the cross-correlation peak between the first and every subsequent frame. It provides a numerical value for the image translation with a sub-pixel (sub-μm) resolution. The cell displacement for each frame, the trajectories of tracked cells (FIG. 13C) as well as the root mean square of the total displacement (FIG. 13F) were calculated. Single cell nanomotions were characterized by plotting the distribution of the displacements per frame as a violin plot (FIG. 13D). The movements of the set of 20 cells were characterized by plotting grouped cellular displacements per frame as violin plots and the total displacements of 20 cells over 1000 frames as box-and-whisker plots (FIG. 13E).
(§3) Ten μl of each yeast cell culture was dispensed in one of the microwells, using a 4 Well FulTrac micro-Insert (ibidi, Germany) in an imaging micro-dish (Ibidi, Germany). The yeast cells were allowed to sediment for a period of 10 min before starting the measurement. The movement of cells was observed by taking movies of 1000 frames with a framerate of 84 fps using an EMCCD camera (Andor iXon, Oxford Instruments) using a Nikon TE-2000 microscope with a 40× objective. The Petri dish was kept at 30° C. using a microscope stage top incubator (ibidi, Germany).
The effect of ethanol on the viability of the cells was compared with cells grown in YPD medium as a reference. Therefore, first cell nanomotion videos were recorded and next (after approximately 1 min), 200 μl of ethanol (70% v/v) was added to the top chamber of the 4 micro-Insert wells. Videos were recorded every hour during a period of 5 h. Caspofungin, amphotericin B and fluconazole were used as antifungals in the antifungal susceptibility testing, i.e. to assess their effect on cell viability. Before starting the treatment with the antifungal, reference (no treatment) videos were recorded of yeast cells in YPD medium (time=0 h). Then (at time=1 min) 200 μl of a certain concentration of antifungal was added to the chamber (200 μl) above the 4 microwells. Measurements were taken every hour during a period of 5 h. […]
(§4) The optical nanomotion detection algorithm calculates the cell displacement for each frame and saves the trajectories of tracked cells as well as the root mean square of the displacement to a MS Excel file. […] The Python package nd2 reader (Verweij R, Online: http://www.lighthacking.nl/nd2reader/) was employed to import the videos in the ND2 Nikon format.

[2] = test system: Candida lusitaniae DSY4590; settings: FKS1 S638Y, erg4; ref [7] unpublished; cited from earlier work
C. albicans DSY294 = test: Optical nanomotion detection (ONMD) of free yeast cells, antifungal susceptibility test; type: cell-based, Candida albicans
Description: as §1, §2, §3
(§5) The effect of ethanol on the viability of the cells was compared with cells grown in YPD medium as a reference. Therefore, first cell nanomotion videos were recorded and next (after approximately 1 min), 200 μl of ethanol (70% v/v) was added to the top chamber of the 4 micro-Insert wells. Videos were recorded every hour during a period of 5 h. Caspofungin, amphotericin B and fluconazole were used as antifungals in the antifungal susceptibility testing, i.e. to assess their effect on cell viability. Before starting the treatment with the antifungal, reference (no treatment) videos were recorded of yeast cells in YPD medium (time=0 h). Then (at time=1 min) 200 μl of a certain concentration of antifungal was added to the chamber (200 μl) above the 4 microwells. Measurements were taken every hour during a period of 5 h. As abiotic reference particles, silica microbeads (monodisperse silica standard, Whitehouse Scientific) with a diameter of 3 μm were used. The beads were dissolved in YPD medium and the measurements were performed at 30° C.
(§6) The optical nanomotion detection algorithm calculates the cell displacement for each frame and saves the trajectories of tracked cells as well as the root mean square of the displacement to a MS Excel file. The main part of the program is based on the algorithm of Guizar-Sicairos et al.[14], ported from Matlab to Python in the open source image processing library sci-kit image. The Python package nd2 reader (Verweij R, Online: http://www.lighthacking.nl/nd2reader/) was employed to import the videos in the ND2 Nikon format.

S. cerevisiae BY4742 = test: Optical nanomotion detection (ONMD) of free yeast cells; type: cell-based, Saccharomyces cerevisiae
Description: as §1, §2, §3, §5, §6

C. glabrata DSY562 = test: as above; type: cell-based, Candida glabrata
Description: as §1, §2
(§7) Ten μl of each yeast cell culture was dispensed in one of the microwells, using a 4 Well FulTrac micro-Insert (ibidi, Germany) in an imaging micro-dish (Ibidi, Germany). The yeast cells were allowed to sediment for a period of 10 min before starting the measurement. […]
(§8) The effect of ethanol on the viability of the cells was compared with cells grown in YPD medium as a reference. Therefore, first cell nanomotion videos were recorded and next (after approximately 1 min), 200 μl of ethanol (70% v/v) was added to the top chamber of the 4 micro-Insert wells. Videos were recorded every hour during a period of 5 h. […] Before starting the treatment with the antifungal, reference (no treatment) videos were recorded of yeast cells in YPD medium (time=0 h). […]
as §4

S. cerevisiae [3] = settings: cited from earlier work
C. lusitaniae DSY4606 = test: Optical nanomotion detection (ONMD) of free yeast cells; type: cell-based, Candida lusitaniae
Description: as §1, §2, §7, §8, §4

osteoblasts = settings: AFM-cantilever method; cited from earlier work
S. cerevisiae [4] = settings: cited from earlier work; remark: listed apart in the source
[5] = test system: C. lusitaniae DSY4590 (resistant clinical strain); test: Optical nanomotion detection (ONMD) of free yeast cells; type: cell-based, Candida lusitaniae; settings: caspofungin 10 μg/ml; FIG. 4b left panel
Description: as §1, §2, §7, §8, §4

[6] = test system: C. albicans DSY4614 (candin-resistant clinical strain); test: Optical nanomotion detection (ONMD) of free yeast cells, antifungal susceptibility test; type: cell-based, Candida albicans
Description: as §1, §2, §3, §5, §6

[7] = test system: C. albicans DSY1024 (hypersusceptible, mutant for efflux systems); test: as above; type: cell-based, Candida albicans
Description: as §1, §2, §3, §5, §6

[8] = ethanol 70% v/v, ten minutes after addition and diffusive mixing, t-test
[9] = ethanol 70%, Wilcoxon test, FIG. 15
[10] = ethanol 70%, ten minutes after addition
[11] = caspofungin treated, pooled from 1-5-hour treatments, FIG. 7d
[12] = caspofungin 10 μg/ml, surface-attached cells, FIG. 6, 18F-K

C[C@@H]1[C@H](O)[C@@H](C)/C=C/C=C/C=C/C=C/C=C/C=C/C=C/[C@H](O[C@@H]2O[C@H](C)[C@@H](O)[C@H](N)[C@@H]2O)C[C@@H]2O[C@](O)(C[C@@H](O)C[C@@H](O)[C@H](O)CC[C@@H](O)C[C@@H](O)CC(=O)O[C@H]1C)C[C@H](O)[C@H]2C(=O)O [amphotericin B]
reported amphotericin B MIC value, classical microtitre plate method (C. albicans; 'this strain' (CAF2-1 or DSY294, not clear)): 0.3 µg/mL | reported amphotericin B MIC value (C. albicans; C. albicans DSY strains): 0.5 µg/mL | concentration at which the cellular nanomotion is increased, as multiple of MIC [1]: around 10 times the MIC | concentration at which the mean total displacement increased ([1]; after 1 h treatment, FIG. 2g): 10 µg/mL | concentration at which the mean total displacement increased ([1]; after 2 h treatment, FIG. 2h): 4 µg/mL | mean total displacement at higher drug concentrations ([1]; concentrations above 10 μg/ml (1 h) or 4 μg/ml (2 h)): decreased | MIC value detected by ONMD (lowest concentration where a change in nanomotion can be observed) ([1]; total displacement of 20 cells, 'this strain'): 1 to 4 µg/mL | susceptibility of the strain (characteristics) [2]: FKS1, S638Y, erg4 Resistant | concentration at which the cellular nanomotion is increased, as multiple of MIC (C. albicans DSY294): around 10 times the MIC | concentration at which the total displacement shows an increase (C. albicans DSY294; after 1 h treatment, FIG. 16F): 10 µg/mL | increase of total displacement after 2 h treatment (C. albicans DSY294; after 2 h treatment, FIG. 16G): the increase is reduced | nanomotion signal after 1 h treatment (C. albicans DSY294; amphotericin B 100 μg/ml, 1 h, FIG. 2d): decreased to values close to those recorded on dead cells | time of treatment after which a significant decrease in the mean total displacement was detected (C. albicans DSY294; amphotericin B 100 μg/ml, t-test, FIG. 2d): 1 h | time of treatment after which a significant decrease in cellular displacements and total displacement was detected (C. albicans DSY294; amphotericin B 500 μg/ml, FIG. 16A, 20A): 1 h | cellular nanomotion after 1 h treatment, whole set of 20 cells (C. albicans DSY294; amphotericin B at a high concentration (500 μg/ml), 1 h, FIG. 20A): decreased to values close to those recorded on dead cells

CCO [ethanol]
change of total displacement (S. cerevisiae BY4742; [8]): significant (t-test) decrease | time after which a significant decrease of the total displacement was observed (S. cerevisiae BY4742; [9]): 60 min | displacements in the set of 20 cells (S. cerevisiae BY4742; [10]): reduction of the displacements | change of total displacement (C. glabrata DSY562; [8]): significant (t-test) decrease | time after which a significant decrease of the total displacement was observed (C. glabrata DSY562; [9]): 60 min | displacements in the set of 20 cells (C. glabrata DSY562; [10]): reduction of the displacements | higher ethanol concentrations that impair the cell membrane integrity, eventually apoptotic cell death (S. cerevisiae [3]): > 10% | moderate ethanol concentrations that affect the growth rate (S. cerevisiae [3]): 5-7% | change of total displacement (C. lusitaniae DSY4606; [8]): significant (t-test) decrease | displacements in the set of 20 cells (C. lusitaniae DSY4606; [10]): reduction of the displacements | time of treatment after which a significant decrease of the total displacement was measured (C. albicans DSY294; ethanol 70% v/v, t-test, FIG. 2c): 60 min | displacements in the set of 20 cells (C. albicans DSY294; [10]): reduction of the displacements

cytochalasin
cellular movement after depolymerizing the actin cytoskeleton (osteoblasts): reduced cellular movement

OC(Cn1cncn1)(Cn1cncn1)c1ccc(F)cc1F [fluconazole]
effect on total displacement after 1 h of treatment (S. cerevisiae BY4742; fluconazole 400 μg/ml, 1 h, FIG. 5b): no effect | time of treatment after which a significant decrease in total displacement was obvious (S. cerevisiae BY4742; fluconazole 400 μg/ml, FIG. 5b): 5 h | time of treatment after which a significant decrease in (mean) total displacement was detected (C. albicans DSY294; fluconazole 400 μg/ml, FIG. 2d, 16C): 1 h | fluconazole MIC value (S. cerevisiae [4]): 1 to 8 µg/mL

CC[C@H](C)C[C@H](C)CCCCCCCCC(=O)N[C@H]1C[C@@H](O)[C@@H](NCCN)NC(=O)[C@@H]2[C@@H](O)CCN2C(=O)[C@H]([C@H](O)CCN)NC(=O)[C@H]([C@H](O)[C@@H](O)c2ccc(O)cc2)NC(=O)[C@@H]2C[C@@H](O)CN2C(=O)[C@H]([C@@H](C)O)NC1=O [caspofungin]
time of treatment after which a significant decrease of the total displacement was observed (S. cerevisiae BY4742; caspofungin 10 μg/ml, FIG. 5a): 3 h | time of treatment after which the cells were dead (nanomotion AFST) (C. glabrata DSY562; caspofungin, FIG. 4a): 2 h | killing of cells judged by nanomotion (C. lusitaniae DSY4606; caspofungin 10 μg/ml, FIG. 4b right panel): killed | effect of treatment on nanomotion [5]: not affected | effect on nanomotion ([6]; caspofungin 10 μg/ml, FIG. 2e, 16E): did not affect the nanomotion | total displacement of cells attached to concanavalin A coated glass, treated versus untreated ([6]; caspofungin 10 μg/ml, surface-attached cells, FIG. 6): no significant decrease of the total displacement | critical frequency (fcrit) distribution of treated cells [6, 11]: broadening of their fcrit | total displacement of cells attached to concanavalin A coated glass, treated versus untreated (C. albicans DSY294; [12]): no significant decrease of the total displacement; also recorded: no significant difference | time of treatment after which a significant decrease in (mean) total displacement was detected (C. albicans DSY294; caspofungin 100 μg/ml, FIG. 2d, 16B): 1 h | critical frequency (fcrit) distribution of treated cells (C. albicans DSY294; [11]): broadening of their fcrit | killing of cells judged by nanomotion ([7]; caspofungin 10 μg/ml, FIG. 2f, 16D): did kill | total displacement of cells attached to concanavalin A coated glass, treated versus untreated [7, 12]: no significant decrease of the total displacement; also recorded: no significant difference | additional fcrit of treated cells [7, 11]: around 2 Hz | critical frequency (fcrit) distribution of treated cells, extent of broadening [7, 11]: most extended
